According to the supplement of paper PMC9265050, “Inhibition of RNA Binding in SND1 Increases the Levels of miR-1-3p and Sensitizes Cancer Cells to Navitoclax” (Cancers, 2022):

Tested on: SW480
Assay: drug sensitivity score (DSS, integrated dose-response area); higher = more sensitive (stronger viability reduction); extreme values may be limits of the assay
In short: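 Viability of induced SW480 cells carrying control or SND1-targeting shRNA was read by CellTiter-Glo 72 h after plating at 1000 cells per well onto 384-well plates holding 525 small-molecule inhibitors at five concentrations. Induction used 0.1 µg/mL doxycycline for 7 days. Each drug sensitivity score integrates the area under a fitted non-linear dose–response model.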

[1] = shRNA: SND1 shRNA1 (SND1 silenced)
[2] = shRNA: control shRNA (non-targeting)
[3] = shRNA: SND1 shRNA2 (SND1 silenced)

Compound | drug sensitivity score [1] [DSS] | drug sensitivity score [2] [DSS] | drug sensitivity score [3] [DSS]
C=CC[C@@H]1/C=C(\C)C[C@H](C)C[C@H](OC)[C@H]2O[C@@](O)(C(=O)C(=O)N3CCCC[C@H]3C(=O)O[C@H](/C(C)=C/[C@@H]3CC[C@@H](O)[C@H](OC)C3)[C@H](C)[C@@H](O)CC1=O)[C@H](C)C[C@@H]2OC [Tacrolimus] | 0 | 0 | 
O=C(CCCCCCC(=O)Nc1ccc([C@H]2O[C@@H](CSc3nc(-c4ccccc4)c(-c4ccccc4)o3)C[C@@H](c3ccc(CO)cc3)O2)cc1)NO [Tubacin] | 4.1 | 6.2 | 2.7
CCCCCOC(=O)Nc1nc(=O)n([C@@H]2O[C@H](C)[C@@H](O)[C@H]2O)cc1F [Capecitabine] | 0 | 0 | 0
O=C(NOCCO)c1ccc2cncn2c1Nc1ccc(I)cc1F [GDC-0623] | 13.9 | 7.4 | 7.6
O=C(NC[C@H](O)CN1CCc2ccccc2C1)c1cc(NC2COC2)ncn1 | 0 | 0.2 | 0
CO[C@H]1C[C@@H]2CC[C@@H](C)[C@@](O)(O2)C(=O)C(=O)N2CCCC[C@H]2C(=O)O[C@H]([C@H](C)C[C@@H]2CC[C@@H](OCCO)[C@H](OC)C2)CC(=O)[C@H](C)/C=C(\C)[C@@H](O)[C@@H](OC)C(=O)[C@H](C)C[C@H](C)/C=C/C=C/C=C/1C [Everolimus] | 7.5 | 0.4 | 
Cc1cnc(-c2ccccc2C(C)C)nc1NCc1ccc(-n2ccnn2)cc1 [ML323] | 0 | 4.4 | 1.4
CCOc1ccn(-c2ccc(F)cc2)c(=O)c1C(=O)Nc1ccc(Oc2ccnc(N)c2Cl)c(F)c1 | 1.9 | 6.5 | 8.3
CNC(=O)c1cccc2cc(Oc3ccnc4cc(OCC5(N)CC5)c(OC)cc34)ccc12 [Lucitanib] | 2.3 | 3 | 0.6
COc1ccc(S(=O)(=O)Nc2cccnc2Nc2ccc(O)cc2)cc1 [ABT-751] | 9 | 9.5 | 9.1
NS(=O)(=O)OC[C@@H]1C[C@@H](n2ccc3c(N[C@H]4CCc5ccccc54)ncnc32)C[C@@H]1O [Pevonedistat] | 4.5 | 8.2 | 
COc1cc(C(=O)NC2CCN(C)CC2)c(F)cc1Nc1ncc2c(n1)N(C1CCCC1)CC(F)(F)C(=O)N2C [TAK-960] | 0.1 | 3.6 | 5.4
CN1CCC(COc2cnc(-c3cccc(Cn4nc(-c5cccc(C#N)c5)ccc4=O)c3)nc2)CC1 | 0 | 0 | 0
CCc1nc(-c2cccc(C)c2)c(-c2ccnc(NC(=O)c3ccccc3)c2)s1 [TAK-715] | 4.7 | 5.1 | 
Cc1ccc2nc(CN(CCN(Cc3nc4ccc(C)cc4[nH]3)Cc3nc4ccc(C)cc4[nH]3)Cc3nc4ccc(C)cc4[nH]3)[nH]c2c1 | 1.5 | 2.1 | 1.3
COc1cc2ncnc(Nc3ccc(F)c(Cl)c3)c2cc1NC(=O)/C=C/CN1CCCCC1 [Dacomitinib] | 3.3 | 10.2 | 7
C/C(=C\c1csc(C)n1)[C@@H]1C[C@@H]2O[C@]2(C)CCC[C@H](C)[C@H](O)[C@@H](C)C(=O)C(C)(C)[C@@H](O)CC(=O)N1 [Ixabepilone] | 3 | 2.5 | 2.7
Oc1ncnc2[nH]ncc12 [Allopurinol] | 0.2 | 1.2 | 0
Nc1cccc2c1C(=O)N(C1CCC(=O)NC1=O)C2=O (stereo not given) [Pomalidomide] | 0 | 0 | 0
Cc1ccc(Nc2nccc(N(C)c3ccc4c(C)n(C)nc4c3)n2)cc1S(N)(=O)=O [Pazopanib] | 0.5 | 1.8 | 7.1
C=CCNC1=C2C[C@@H](C)C[C@H](OC)[C@H](O)[C@@H](C)/C=C(\C)[C@H](OC(N)=O)[C@@H](OC)/C=C\C=C(/C)C(=O)NC(=CC1=O)C2=O [Tanespimycin] | 10.5 | 16.1 | 11.7
CC(C)(C)c1cc(NC(=O)Nc2ccc(-c3cn4c(n3)sc3cc(OCCN5CCOCC5)ccc34)cc2)no1 [Quizartinib] | 0 | 0 | 0
CN(C)Cc1c(C(=O)NCCOc2ccc(C(=O)NO)cc2)oc2ccccc12 [Abexinostat] | 21.3 | 19.4 | 16.4
